{"source": "ChEMBL document CHEMBL1201862", "about": "“PubChem BioAssay data set” (2004)", "key": {"Vero [1]": {"tested_on": "Vero", "test": "mammalian cell viability reduction – secondary assay, cytotoxicity control for West Nile virus antiviral project, dose response (AID 1650)", "assay_type": "functional", "settings": "Chlorocebus sabaeus"}, "Vero [2]": {"tested_on": "Vero", "test": "cells", "assay_type": "functional", "settings": "Chlorocebus sabaeus"}, "[3]": {"target": "SWI/SNF-related matrix-associated actin-dependent regulator of chromatin subfamily A member 2 (Homo sapiens, UniProt P51531)", "test": "Luminescence-based cell-based high throughput dose response assay to identify activators of the function of SWI/SNF related, matrix associated, actin dependent regulator of chromatin, subfamily a, member 2 (SMARCA2, BRM).", "assay_type": "functional"}, "[4]": {"test": "Counterscreen for activators of the function of SWI/SNF related, matrix associated, actin dependent regulator of chromatin, subfamily a, member 2 (SMARCA2, BRM): Luminescence-based cell-based high throughput dose response assay to identify non-selective compounds using the VP16 reporter assay.", "assay_type": "functional"}, "[5]": {"target": "Induced myeloid leukemia cell differentiation protein Mcl-1 (Homo sapiens, UniProt Q07820)", "sequence (Q07820 whole entry)": "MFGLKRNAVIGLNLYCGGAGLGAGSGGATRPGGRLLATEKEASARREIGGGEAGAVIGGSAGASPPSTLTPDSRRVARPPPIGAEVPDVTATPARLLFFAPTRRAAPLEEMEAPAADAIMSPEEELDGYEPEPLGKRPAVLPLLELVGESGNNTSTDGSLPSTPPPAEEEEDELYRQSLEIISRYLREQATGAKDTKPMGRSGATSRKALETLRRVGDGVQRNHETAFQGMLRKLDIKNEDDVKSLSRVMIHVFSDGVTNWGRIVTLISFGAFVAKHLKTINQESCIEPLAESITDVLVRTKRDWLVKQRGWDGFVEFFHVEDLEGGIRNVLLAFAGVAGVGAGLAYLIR", "test": "blockers of MCL1 binding to BIM peptide – biochemical, fluorescence polarization, BIM-BH3 peptide, 1536-well, dose response (AID 2217)"}, "Bcl-2-like protein 1": {"target": "Bcl-2-like protein 1 (Homo sapiens, UniProt Q07817)", "sequence (Q07817 whole entry)": "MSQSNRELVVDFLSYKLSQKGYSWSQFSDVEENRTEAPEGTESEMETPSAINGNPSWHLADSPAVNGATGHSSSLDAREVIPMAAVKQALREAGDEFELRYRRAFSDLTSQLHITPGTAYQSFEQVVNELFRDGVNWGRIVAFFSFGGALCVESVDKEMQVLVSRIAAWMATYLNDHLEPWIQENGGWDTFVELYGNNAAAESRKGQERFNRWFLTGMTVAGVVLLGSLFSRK", "test": "blockers of BCLXL peptide binding – biochemical, fluorescence polarization, 1536-well, selectivity assay for MCL1 inhibitor project, dose response (AID 2218)"}, "[6]": {"target": "T1, Carboxy-terminal domain RNA polymerase II polypeptide A small phosphatase 1 (Homo sapiens, UniProt Q9GZU7)", "T1 sequence (Q9GZU7 whole entry)": "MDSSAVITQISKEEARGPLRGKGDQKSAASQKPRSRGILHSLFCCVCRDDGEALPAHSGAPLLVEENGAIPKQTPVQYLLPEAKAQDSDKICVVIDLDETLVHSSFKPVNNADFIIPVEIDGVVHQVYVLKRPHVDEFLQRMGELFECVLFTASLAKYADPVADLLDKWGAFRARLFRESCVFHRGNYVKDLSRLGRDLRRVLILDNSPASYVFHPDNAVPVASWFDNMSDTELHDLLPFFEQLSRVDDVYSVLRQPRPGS", "test": "CTDSP1 inhibitors, concentration-response, biochemical, absorbance readout, ultra-high-throughput screen actives (AID 540297)", "assay_type": "functional"}, "[7]": {"target": "T2, Small ubiquitin-related modifier 1 (Homo sapiens, UniProt P63165)", "T2 sequence (P63165 whole entry)": "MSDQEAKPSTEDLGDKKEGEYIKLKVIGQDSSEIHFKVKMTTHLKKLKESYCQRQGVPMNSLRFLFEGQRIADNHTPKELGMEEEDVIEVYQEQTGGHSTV", "test": "SUMO1 protein interaction blockers, potency – biochemical, fluorescence polarization, uHTS hits, dose response (AID 624382)", "assay_type": "functional", "settings": "read-out: IC50_Mean"}, "[8]": {"target": "T2, Small ubiquitin-related modifier 1", "test": "SUMO1 protein-protein binding blockers, potency – biochemical, FRET, dose response (AID 624383)", "assay_type": "functional", "settings": "read-out: IC50_Mean"}, "Caspase-6": {"target": "T3, Caspase-6 (Homo sapiens, UniProt P55212)", "T3 sequence (P55212 whole entry)": "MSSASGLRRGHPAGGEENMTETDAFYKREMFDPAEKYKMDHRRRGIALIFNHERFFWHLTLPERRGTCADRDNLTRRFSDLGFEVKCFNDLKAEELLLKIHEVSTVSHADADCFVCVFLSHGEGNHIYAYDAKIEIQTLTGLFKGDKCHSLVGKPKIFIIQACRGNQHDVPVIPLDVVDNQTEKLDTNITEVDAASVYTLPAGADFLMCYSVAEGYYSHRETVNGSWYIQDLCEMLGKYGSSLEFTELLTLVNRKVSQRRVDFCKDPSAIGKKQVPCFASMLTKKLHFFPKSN", "test": "inhibition of CASP6 peptide cleavage – biochemical, VEID-R110 fluorescence, cherry-pick, dose response (AID 720632)"}, "[9]": {"target": "Glyceraldehyde-3-phosphate dehydrogenase (Homo sapiens, UniProt P04406)", "sequence (P04406 whole entry)": "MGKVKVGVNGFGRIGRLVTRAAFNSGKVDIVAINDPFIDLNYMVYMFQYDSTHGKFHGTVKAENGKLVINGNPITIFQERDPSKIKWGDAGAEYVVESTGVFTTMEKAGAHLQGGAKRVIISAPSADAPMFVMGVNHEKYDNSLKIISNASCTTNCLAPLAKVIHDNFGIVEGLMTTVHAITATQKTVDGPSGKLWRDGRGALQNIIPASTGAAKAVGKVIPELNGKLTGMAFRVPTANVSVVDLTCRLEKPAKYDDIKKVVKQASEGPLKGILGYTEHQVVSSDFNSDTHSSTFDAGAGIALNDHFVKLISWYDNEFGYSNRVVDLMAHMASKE"}, "Bcl-2-related protein A1 [10]": {"target": "T4, Bcl-2-related protein A1 (Mus musculus, UniProt Q07440)", "T4 sequence (Q07440 whole entry)": "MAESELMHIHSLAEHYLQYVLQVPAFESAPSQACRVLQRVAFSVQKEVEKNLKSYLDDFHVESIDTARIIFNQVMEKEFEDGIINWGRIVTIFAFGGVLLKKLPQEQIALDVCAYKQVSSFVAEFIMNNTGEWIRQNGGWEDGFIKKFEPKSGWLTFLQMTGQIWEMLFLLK", "test": "small-molecule antagonists of Bfl-1/BH3 interaction – biochemical, TR-FRET, mouse Bfl-1, confirmation (AID 621);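 note: TR-FRET binding of GST-Bfl-1 to FITC-labelled Bid peptide via terbium antibody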"}, "Bcl-2-related protein A1 [11]": {"target": "T4, Bcl-2-related protein A1", "test": "Bfl-1 binding inhibitors, SAR follow-up, biochemical, fluorescence polarization (AID 1070)"}, "[12]": {"test": "M. tuberculosis H37Rv growth inhibitors, H37Rv strain (AID 1626)", "assay_type": "functional"}, "NADPH oxidase 1": {"target": "NADPH oxidase 1 (Homo sapiens, UniProt Q9Y5S8)", "sequence (Q9Y5S8 whole entry)": "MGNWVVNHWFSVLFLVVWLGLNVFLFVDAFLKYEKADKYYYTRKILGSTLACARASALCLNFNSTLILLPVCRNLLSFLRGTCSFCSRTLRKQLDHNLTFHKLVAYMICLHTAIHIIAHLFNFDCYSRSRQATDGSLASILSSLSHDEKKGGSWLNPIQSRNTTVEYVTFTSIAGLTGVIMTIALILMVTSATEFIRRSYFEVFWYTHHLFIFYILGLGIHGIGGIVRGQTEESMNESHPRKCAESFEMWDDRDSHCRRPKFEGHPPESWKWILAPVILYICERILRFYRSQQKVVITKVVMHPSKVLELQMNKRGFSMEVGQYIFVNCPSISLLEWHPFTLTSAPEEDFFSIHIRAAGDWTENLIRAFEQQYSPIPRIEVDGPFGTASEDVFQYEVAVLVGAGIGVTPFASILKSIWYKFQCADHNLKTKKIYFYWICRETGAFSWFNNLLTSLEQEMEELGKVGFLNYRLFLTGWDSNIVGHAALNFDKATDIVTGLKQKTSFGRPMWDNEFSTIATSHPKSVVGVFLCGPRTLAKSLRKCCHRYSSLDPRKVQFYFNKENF", "test": "Late-stage luminescence-based cell-based dose response assay to identify inhibitors of NADPH oxidase 1 (NOX1): Synthesized analogs 2.", "assay_type": "functional"}, "[13]": {"tested_on": "Streptococcus sp. 'group A'", "test": "Streptococcus pyogenes SK(-)GAS viability under kanamycin – luminescence, BacTiterGlo, confirmation, counter-screen for streptokinase expression inhibitor project, dose response (AID 1900)", "assay_type": "functional, organism-based"}, "[14]": {"test": "Luminescence Cell-Based Dose Response HTS to Identify Inhibitors of 5'UTR Stem-Loop Driven Prion Protein mRNA Translation in H4 Neuroglioblastoma Cells. [Related pubchem assays: 1827 (Project Summary), 1813 (Primary HTS)]", "assay_type": "functional"}, "Streptokinase A": {"target": "T5, Streptokinase A (Streptococcus pyogenes serotype M1, UniProt P10520)", "T5 sequence (P10520 whole entry)": "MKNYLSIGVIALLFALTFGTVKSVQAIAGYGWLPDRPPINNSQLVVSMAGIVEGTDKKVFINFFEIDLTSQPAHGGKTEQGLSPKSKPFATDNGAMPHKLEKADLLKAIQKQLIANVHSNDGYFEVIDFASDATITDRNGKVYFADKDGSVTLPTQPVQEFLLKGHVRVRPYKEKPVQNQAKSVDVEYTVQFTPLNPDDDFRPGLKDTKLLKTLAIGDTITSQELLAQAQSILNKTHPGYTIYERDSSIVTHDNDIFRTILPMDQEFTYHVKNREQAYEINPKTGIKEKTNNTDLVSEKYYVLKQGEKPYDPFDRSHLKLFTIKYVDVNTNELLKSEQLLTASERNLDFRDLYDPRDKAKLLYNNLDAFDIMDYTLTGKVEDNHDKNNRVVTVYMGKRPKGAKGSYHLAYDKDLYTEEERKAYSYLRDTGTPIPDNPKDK", "test": "viability-normalized secreted streptokinase activity reduction – plasminogen activation absorbance, OD405, dose response (AID 1914);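 note: secreted streptokinase activity via plasminogen activation per viability signal from cell pellet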", "assay_type": "functional, Streptococcus pyogenes M1 GAS"}, "[15]": {"test": "HPDE-C7 pancreatic duct cell viability loss – fluorescence, HTS (AID 430)", "assay_type": "functional, cell-based", "settings": "Homo sapiens"}, "[16]": {"test": "viability loss of HPDE-C7K cells – cell-based, fluorescence, HTS, primary screen (AID 431)", "assay_type": "functional", "settings": "Homo sapiens"}, "[17]": {"test": "viability of PTEN-deleted HCT116 cells – cell-based, HCT116 PTEN knockout, dose response (AID 1047);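 note: cells exposed to compound for 60 hours before readout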", "assay_type": "functional"}, "Galanin receptor type 2": {"target": "Galanin receptor type 2 (Homo sapiens, UniProt O43603)", "sequence (O43603 whole entry)": "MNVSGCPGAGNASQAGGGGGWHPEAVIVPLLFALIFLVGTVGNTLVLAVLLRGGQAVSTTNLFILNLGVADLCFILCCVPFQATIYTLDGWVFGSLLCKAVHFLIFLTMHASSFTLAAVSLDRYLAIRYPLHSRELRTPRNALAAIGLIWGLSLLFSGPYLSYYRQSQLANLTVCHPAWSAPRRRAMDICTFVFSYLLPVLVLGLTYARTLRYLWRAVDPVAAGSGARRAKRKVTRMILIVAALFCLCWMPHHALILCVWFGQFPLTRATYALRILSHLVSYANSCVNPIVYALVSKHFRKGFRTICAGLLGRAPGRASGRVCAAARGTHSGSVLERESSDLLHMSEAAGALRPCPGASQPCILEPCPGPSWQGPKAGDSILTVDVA", "test": "Dose Response cell-based high-throughput screening assay to identify agonists of galanin receptor 2 (GALR2). [Related pubchem assays: 864 ]", "assay_type": "functional"}, "[18]": {"test": "viability of HCT116 lacking mutant beta-catenin – cell-based, human colon tumor, dose response (AID 1045);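 note: cells exposed to compound for 60 hours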", "assay_type": "functional"}, "Streptococcus": {"tested_on": "Streptococcus", "test": "GAS UMAA2166 growth inhibition – luminescence, BacTiterGlo, counter-screen for streptokinase expression inhibitor project, dose response (AID 1915)", "assay_type": "functional, organism-based"}, "[19]": {"target": "Voltage-dependent T-type calcium channel subunit alpha-1H (Homo sapiens, UniProt O95180)", "sequence (O95180 whole entry)": "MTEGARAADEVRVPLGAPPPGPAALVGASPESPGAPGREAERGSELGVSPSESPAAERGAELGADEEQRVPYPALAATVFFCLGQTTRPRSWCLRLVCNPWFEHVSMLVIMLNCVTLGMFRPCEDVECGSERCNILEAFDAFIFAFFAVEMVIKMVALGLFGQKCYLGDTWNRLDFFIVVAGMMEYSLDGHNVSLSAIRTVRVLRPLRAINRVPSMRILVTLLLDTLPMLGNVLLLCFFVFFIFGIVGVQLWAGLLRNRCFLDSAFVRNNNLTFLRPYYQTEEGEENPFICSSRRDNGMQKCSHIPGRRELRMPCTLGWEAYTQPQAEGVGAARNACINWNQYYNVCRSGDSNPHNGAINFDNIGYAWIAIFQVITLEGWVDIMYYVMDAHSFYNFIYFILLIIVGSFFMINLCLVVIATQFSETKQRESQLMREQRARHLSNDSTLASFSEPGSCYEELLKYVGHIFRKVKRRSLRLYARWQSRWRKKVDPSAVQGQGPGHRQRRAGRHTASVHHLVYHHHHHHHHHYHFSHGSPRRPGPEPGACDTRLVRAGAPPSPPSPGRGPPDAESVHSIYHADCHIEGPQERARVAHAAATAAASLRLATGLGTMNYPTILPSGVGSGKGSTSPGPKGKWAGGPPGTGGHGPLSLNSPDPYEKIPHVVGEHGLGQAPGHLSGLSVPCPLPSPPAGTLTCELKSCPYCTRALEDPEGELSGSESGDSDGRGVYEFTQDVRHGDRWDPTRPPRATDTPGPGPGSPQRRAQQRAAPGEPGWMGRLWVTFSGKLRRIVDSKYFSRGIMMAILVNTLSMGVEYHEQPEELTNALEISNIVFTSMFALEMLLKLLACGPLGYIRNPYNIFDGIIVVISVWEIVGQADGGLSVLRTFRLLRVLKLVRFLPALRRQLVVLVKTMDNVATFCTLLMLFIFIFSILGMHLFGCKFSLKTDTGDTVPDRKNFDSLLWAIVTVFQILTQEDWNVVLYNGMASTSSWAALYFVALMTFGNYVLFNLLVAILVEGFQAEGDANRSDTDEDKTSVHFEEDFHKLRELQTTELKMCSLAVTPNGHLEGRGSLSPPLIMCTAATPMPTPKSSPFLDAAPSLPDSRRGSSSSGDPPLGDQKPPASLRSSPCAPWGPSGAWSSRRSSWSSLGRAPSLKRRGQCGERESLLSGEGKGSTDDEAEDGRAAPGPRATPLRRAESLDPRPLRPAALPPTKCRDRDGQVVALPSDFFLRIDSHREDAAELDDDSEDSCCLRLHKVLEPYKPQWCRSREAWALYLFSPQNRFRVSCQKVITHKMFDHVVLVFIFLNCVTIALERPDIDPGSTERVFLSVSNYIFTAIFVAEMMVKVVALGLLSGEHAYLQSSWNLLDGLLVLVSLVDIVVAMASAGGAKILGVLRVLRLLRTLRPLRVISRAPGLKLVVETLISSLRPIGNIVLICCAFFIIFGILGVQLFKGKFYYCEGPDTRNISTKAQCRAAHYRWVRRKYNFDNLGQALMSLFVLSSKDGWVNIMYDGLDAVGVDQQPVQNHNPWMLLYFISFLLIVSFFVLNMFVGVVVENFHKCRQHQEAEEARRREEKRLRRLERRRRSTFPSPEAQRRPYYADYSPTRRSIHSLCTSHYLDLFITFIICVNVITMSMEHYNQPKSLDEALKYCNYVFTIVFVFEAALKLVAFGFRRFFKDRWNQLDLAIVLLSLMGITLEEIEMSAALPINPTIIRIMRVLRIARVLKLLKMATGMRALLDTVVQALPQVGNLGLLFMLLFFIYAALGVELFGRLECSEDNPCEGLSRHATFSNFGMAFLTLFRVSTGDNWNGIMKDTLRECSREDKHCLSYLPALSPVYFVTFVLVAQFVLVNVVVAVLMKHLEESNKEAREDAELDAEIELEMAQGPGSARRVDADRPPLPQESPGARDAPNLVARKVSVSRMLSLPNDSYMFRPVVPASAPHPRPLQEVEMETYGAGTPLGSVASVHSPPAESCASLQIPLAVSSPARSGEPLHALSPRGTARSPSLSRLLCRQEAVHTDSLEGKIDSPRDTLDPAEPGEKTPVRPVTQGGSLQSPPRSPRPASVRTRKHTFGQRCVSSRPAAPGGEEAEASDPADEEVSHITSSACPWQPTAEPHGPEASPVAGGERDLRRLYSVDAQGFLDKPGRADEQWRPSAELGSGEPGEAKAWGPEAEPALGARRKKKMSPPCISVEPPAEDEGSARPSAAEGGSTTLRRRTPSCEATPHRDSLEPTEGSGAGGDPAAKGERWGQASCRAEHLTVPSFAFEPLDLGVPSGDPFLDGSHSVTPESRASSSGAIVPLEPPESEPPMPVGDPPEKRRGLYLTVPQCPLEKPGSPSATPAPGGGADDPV", "assay_type": "functional"}, "INS1": {"tested_on": "INS1", "test": "INS-1E survival protection against cytokine death – cell-based, luminescence, retest, dose response (AID 449756);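 note: cell death triggered by IL-1 beta plus TNF-alpha plus IFN-gamma mixture; protective hits raise ATP signal compared with cytokine alone wells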", "assay_type": "functional", "settings": "Rattus norvegicus"}, "[20]": {"target": "Dual specificity tyrosine-phosphorylation-regulated kinase 1A (Rattus norvegicus, UniProt Q63470)", "assay_type": "biochemical, Homo sapiens"}, "P388/ADR": {"tested_on": "P388/ADR", "test": "cells", "assay_type": "functional", "settings": "Mus musculus"}, "SN12K1": {"tested_on": "SN12K1", "test": "cells", "assay_type": "functional", "settings": "Homo sapiens"}, "P388": {"tested_on": "P388", "test": "cells", "assay_type": "functional", "settings": "Mus musculus"}, "Cytochrome P450 2C9": {"target": "Cytochrome P450 2C9 (Homo sapiens, UniProt P11712)", "sequence (P11712 whole entry)": "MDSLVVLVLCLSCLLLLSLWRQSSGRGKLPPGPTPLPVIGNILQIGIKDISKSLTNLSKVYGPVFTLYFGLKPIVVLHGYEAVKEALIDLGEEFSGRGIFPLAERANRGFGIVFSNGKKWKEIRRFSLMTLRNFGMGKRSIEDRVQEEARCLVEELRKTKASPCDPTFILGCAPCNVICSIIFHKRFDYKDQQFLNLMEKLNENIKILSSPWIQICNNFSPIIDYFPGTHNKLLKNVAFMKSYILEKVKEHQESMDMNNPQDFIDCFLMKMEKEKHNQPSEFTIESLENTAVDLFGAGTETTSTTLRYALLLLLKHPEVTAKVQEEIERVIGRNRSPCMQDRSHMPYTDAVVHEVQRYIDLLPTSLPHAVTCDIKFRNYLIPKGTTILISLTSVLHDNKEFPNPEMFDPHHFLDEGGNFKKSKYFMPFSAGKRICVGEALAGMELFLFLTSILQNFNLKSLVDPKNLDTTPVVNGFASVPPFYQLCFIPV", "settings": "Potency"}}, "note": "Activity calls are given as the source filed them.", "data": [{"smiles": "COCCNC(=O)/C(C#N)=C/C=C/c1ccccc1[N+](=O)[O-]", "values": [{"measurement": "CC50", "setting": "Vero [1]", "value": "13.4 µM (active)"}, {"measurement": "CC50", "setting": "Vero [2]", "value": "16 µM (active)"}, {"measurement": "EC50", "setting": "[3]", "value": "> 91.1 µM (inactive)"}, {"measurement": "EC50", "setting": "[4]", "value": "> 91.1 µM (inactive)"}]}, {"smiles": "Cc1ccc(C)c(S(=O)(=O)Nc2ccc3oc(C)c(C(=O)O)c3c2)c1", "values": [{"measurement": "IC50", "setting": "[5]", "value": "18.2 µM (not active)"}, {"measurement": "IC50", "setting": "Bcl-2-like protein 1", "value": "93.3 µM (not active)"}, {"measurement": "IC50", "setting": "[6]", "value": "3.21 µM (active)"}, {"measurement": "IC50", "setting": "[7]", "value": "> 66.6 µM (inactive)"}, {"measurement": "IC50", "setting": "[8]", "value": "11.3 µM (active)"}, {"measurement": "AC50", "setting": "Caspase-6", "value": "3.67 µM (active)"}]}, {"smiles": "O=C1C(Cl)=C(N2CCN(CCO)CC2)C(=O)N1c1cccc([N+](=O)[O-])c1", "values": [{"measurement": "IC50", "setting": "[9]", "value": "> 100 µM (not active)"}, {"measurement": "IC50", "setting": "Bcl-2-related protein A1 [10]", "value": "10.8 µM (active)"}, {"measurement": "IC50", "setting": "Bcl-2-related protein A1 [11]", "value": "30.9 µM (active)"}]}, {"smiles": "Cc1ccccc1NC(=O)Nc1ccc(C(F)(F)F)cc1", "values": [{"measurement": "IC50", "setting": "[12]", "value": "> 100 µM (active)"}]}, {"smiles": "C=CC(=O)Nc1ccc2c(c1)Sc1ccccc1N2C", "values": [{"measurement": "IC50", "setting": "NADPH oxidase 1", "value": "2.38 µM (active)"}]}, {"smiles": "Cc1c2ccncc2c(C)c2c1[nH]c1ccccc12", "note": "[ELLIPTECINE]", "values": [{"measurement": "EC50", "setting": "[13]", "value": "2.25 µM (active)"}, {"measurement": "EC50", "setting": "[14]", "value": "> 120 µM (not active)"}, {"measurement": "EC50", "setting": "Streptokinase A", "value": "> 150 µM (not active)"}, {"measurement": "EC50", "setting": "[15]", "value": "6.17 µM (active)"}, {"measurement": "EC50", "setting": "[16]", "value": "2.4 µM (active)"}, {"measurement": "EC50", "setting": "[17]", "value": "0.177 µM (active)"}, {"measurement": "EC50", "setting": "Galanin receptor type 2", "value": "> 55.7 µM (not active)"}, {"measurement": "EC50", "setting": "[18]", "value": "0.117 µM (active)"}, {"measurement": "EC50", "setting": "Streptococcus", "value": "7.7 µM (active)"}, {"measurement": "EC50", "setting": "[19]", "value": "3.99 µM (active)"}, {"measurement": "AC50", "setting": "INS1", "value": "2.12 µM (active)"}, {"measurement": "AC50", "setting": "[20]", "value": "0.231 µM (active)"}, {"measurement": "GI50", "setting": "P388/ADR", "value": "0.824 µM (active)"}, {"measurement": "GI50", "setting": "SN12K1", "value": "0.56 µM (active)"}, {"measurement": "GI50", "setting": "P388", "value": "0.383 µM (active)"}, {"measurement": "AC50", "setting": "Cytochrome P450 2C9", "value": "39.8 µM (inconclusive)"}]}]}
